Source: ChEMBL document CHEMBL4342458, “Reisolation and Configurational Reinvestigation of Cottoquinazolines E-G from an Arthropod-Derived Strain of the Fungus Neosartorya fischeri” (2020)

Key:
Format in all cases: functional
[1] = test system: Pseudomonas aeruginosa; experiment: Antibacterial activity against Pseudomonas aeruginosa ATCC 27853 assessed as reduction in microbial growth after 16 hrs by broth microdilution method; settings: ATCC 27853, 16 h
[2] = test system: Escherichia coli; experiment: Antibacterial activity against ESBL-producing Escherichia coli ATCC 35218 assessed as reduction in microbial growth after 16 hrs by broth microdilution method; settings: ATCC 35218, 16 h
[3] = test system: Enterococcus faecalis; experiment: Antibacterial activity against Enterococcus faecalis ATCC 29212 assessed as reduction in microbial growth after 16 hrs by broth microdilution method; settings: ATCC 29212, 16 h
[4] = test system: Staphylococcus aureus; experiment: Antibacterial activity against methicillin-resistant Staphylococcus aureus ATCC 43300 assessed as reduction in microbial growth after 16 hrs by broth microdilution method; settings: ATCC 43300, 16 h
[5] = test system: Klebsiella pneumoniae; experiment: Antibacterial activity against Klebsiella pneumoniae ATCC BAA2146 assessed as reduction in microbial growth after 16 hrs by broth microdilution method; settings: ATCC BAA2146, 16 h
[6] = test system: Acinetobacter baumannii; experiment: Antibacterial activity against Acinetobacter baumannii ATCC 19606 assessed as reduction in microbial growth after 16 hrs by broth microdilution method; settings: ATCC 19606, 16 h

SMILES	MIC [1]	MIC [2]	MIC [3]	MIC [4]	MIC [5]	MIC [6]
C[C@H]1C(=O)N2c3ccccc3[C@@]3(O)C[C@H]4C(=O)N[C@H](c5nc6ccccc6c(=O)n54)N1[C@@H]23	≥ 100 µg/mL	≥ 100 µg/mL	≥ 100 µg/mL	≥ 100 µg/mL	≥ 100 µg/mL	≥ 100 µg/mL
C[C@@H]1N[C@H]2N(C1=O)c1ccccc1[C@@]21C[C@H]2C(=O)N[C@@H](O1)c1nc3ccccc3c(=O)n12	≥ 100 µg/mL	≥ 100 µg/mL	≥ 100 µg/mL	≥ 100 µg/mL	≥ 100 µg/mL	≥ 100 µg/mL
NCC[C@H](O)C(=O)N[C@@H]1C[C@H](N)[C@@H](O[C@H]2O[C@H](CN)[C@@H](O)[C@H](O)[C@H]2O)[C@H](O)[C@H]1O[C@H]1O[C@H](CO)[C@@H](O)[C@H](N)[C@H]1O [AMIKACIN]	2 µg/mL	4 µg/mL			8 µg/mL	2 µg/mL
CO/N=C(\C(=O)N[C@@H]1C(=O)N2C(C(=O)O)=C(CSc3nc(=O)c(O)nn3C)CS[C@H]12)c1csc(N)n1 [CEFTRIAXONE]	2 µg/mL	8 µg/mL			8 µg/mL	8 µg/mL
C[C@@H]1N[C@H]2N(C1=O)c1ccccc1[C@@]21C[C@H]2C(=O)N(C)[C@@H](O1)c1nc3ccccc3c(=O)n12	32 µg/mL	8 µg/mL	16 µg/mL	≥ 100 µg/mL	≥ 100 µg/mL	32 µg/mL
CN[C@H](CC(C)C)C(=O)N[C@H]1C(=O)N[C@@H](CC(N)=O)C(=O)N[C@H]2C(=O)N[C@H]3C(=O)N[C@H](C(=O)N[C@H](C(=O)O)c4cc(O)cc(O)c4-c4cc3ccc4O)[C@H](O)c3ccc(c(Cl)c3)Oc3cc2cc(c3O[C@@H]2O[C@H](CO)[C@@H](O)[C@H](O)[C@H]2O[C@H]2C[C@](C)(N)[C@H](O)[C@H](C)O2)Oc2ccc(cc2Cl)[C@H]1O [VANCOMYCIN]			0.5 µg/mL			
